Measured values as given in US8263608B2, “Melanocortin receptor-specific spiro-piperidine compounds” (Palatin Technologies, Inc., priority 2008, dated 2012).
pEC50: −log10 of the molar value.

Target: T1, MC1-R (Homo sapiens, UniProt Q01726)
T1 construct: or, for MC1-R, in HBL cells; endogenous in cells; host or cells: HBL cells
Assay: Assay for agonist activity: intracellular cAMP accumulation (functional assay)
Assay type: cell-based
Details: functional assays at MC1-R; for pEC50: HBL cells that express MC1-R, cAMP; for Emax: maximum efficacy compared to reference agonist NDP-α-MSH
Description: Accumulation of intracellular cAMP is examined as a measure of the ability of the test compounds to elicit a functional response in HEK-293 cells that express MC4-R, or, for MC1-R, in HBL cells. Confluent HEK-293 cells that express recombinant hMC4-R, or HBL cells that express MC1-R, are detached from culture plates by incubation in enzyme-free cell dissociation buffer. Dispersed cells are suspended in Earle's Balanced Salt Solution containing 10 mM HEPES (pH 7.5), 1 mM MgCl2, 1 mM glutamine, 0.5% albumin and 0.3 mM 3-isobutyl-1-methyl-xanthine (IBMX), a phosphodiesterase inhibitor. The cells are plated in 96-well plates at a density of 0.5 x 10^5 cells per well and pre-incubated for 30 minutes. Cells are exposed for 1 hour at 37° C. to test compounds dissolved in DMSO (final DMSO concentration of 1%) at a concentration range of 0.05-5000 nM in a total assay volume of 200 μL. NDP-α-MSH is used as the reference agonist. At the end of the incubation period, cells are disrupted by the addition of 50 μL of lysis buffer (cAMP EIA kit, Amersham) followed by vigorous pipetting. Levels of cAMP in the lysates are determined using a cAMP EIA kit (Amersham). Data analysis is performed by nonlinear regression analysis with Graph-Pad Prism® software. The maximum efficacies of the test compounds are compared to that achieved by the reference melanocortin agonist NDP-α-MSH.

T1 sequence (Q01726 whole entry): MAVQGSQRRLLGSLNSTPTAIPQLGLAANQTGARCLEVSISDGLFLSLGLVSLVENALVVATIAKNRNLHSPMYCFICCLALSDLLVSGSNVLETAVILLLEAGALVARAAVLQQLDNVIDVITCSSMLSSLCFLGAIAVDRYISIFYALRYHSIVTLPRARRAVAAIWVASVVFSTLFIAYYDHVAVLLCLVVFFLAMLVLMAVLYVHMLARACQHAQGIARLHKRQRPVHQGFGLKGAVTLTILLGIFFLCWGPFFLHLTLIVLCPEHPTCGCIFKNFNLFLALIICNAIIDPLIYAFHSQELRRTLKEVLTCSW

| Structure (SMILES) | functional status at MC1-R | pEC50 | Emax [%] |
| --- | --- | --- | --- |
| COC(=O)CN1CN(c2ccccc2)C2(CCN(C(=O)[C@@H](Cc3ccc(OC)cc3)NC(=O)CCc3cnc[nH]3)CC2)C1=O [Example 137, {8-[(R)-2-(3-3H-Imidazol-4-yl-propionylamino)-3-(4-methoxy-phenyl)-propionyl]-4-oxo-1-phenyl-1,3,8-triaza-spiro[4.5]dec-3-yl}-acetic acid methyl ester] | partial agonist | 7.42 | 56 |
| COC(=O)CN1CN(c2ccccc2)C2(CCN(C(=O)[C@@H](Cc3ccc(OC)cc3)NC(=O)CCCCN)CC2)C1=O [Example 138, {8-[(R)-2-(5-Amino-pentanoylamino)-3-(4-methoxy-phenyl)-propionyl]-4-oxo-1-phenyl-1,3,8-triaza-spiro[4.5]dec-3-yl}-acetic acid methyl ester] | partial agonist | 6.47 | 44 |
| COc1ccc(C[C@@H](NC(=O)[C@@H](N)Cc2cncn2C)C(=O)N2CCC3(CC2)C(=O)N(C)CN3c2ccccc2)cc1 [Example 139, (S)-2-Amino-N-[(R)-1-(4-methoxy-benzyl)-2-(3-methyl-4-oxo-1-phenyl-1,3,8-triaza-spiro[4.5]dec-8-yl)-2-oxo-ethyl]-3-(3-methyl-3H-imidazol-4-yl)-propionamide] | partial agonist | 6.75 | 45 |
| CCN1CN(c2ccccc2)C2(CCN(C(=O)[C@@H](Cc3ccc(OC)cc3)NC(=O)[C@@H](N)Cc3cncn3C)CC2)C1=O [Example 140, (S)-2-Amino-N-[(R)-2-(3-ethyl-4-oxo-1-phenyl-1,3,8-triaza-spiro[4.5]dec-8-yl)-1-(4-methoxy-benzyl)-2-oxo-ethyl]-3-(3-methyl-3H-imidazol-4-yl)-propionamide] | partial agonist | 7.60 | 42 |
| COc1ccc(C[C@@H](NC(=O)[C@@H](N)Cc2cncn2C)C(=O)N2CCC3(CC2)C(=O)N(C(C)C)CN3c2ccccc2)cc1 [Example 141, (S)-2-Amino-N-[(R)-2-(3-isopropyl-4-oxo-1-phenyl-1,3,8-triaza-spiro[4.5]dec-8-yl)-1-(4-methoxy-benzyl)-2-oxo-ethyl]-3-(3-methyl-3H-imidazol-4-yl)-propionamide] | partial agonist | 8.22 | 45 |
| CCCCN1CN(c2ccccc2)C2(CCN(C(=O)[C@@H](Cc3ccc(OC)cc3)NC(=O)[C@@H](N)Cc3cncn3C)CC2)C1=O [Example 142, (S)-2-Amino-N-[(R)-2-(3-butyl-4-oxo-1-phenyl-1,3,8-triaza-spiro[4.5]dec-8-yl)-1-(4-methoxy-benzyl)-2-oxo-ethyl]-3-(3-methyl-3H-imidazol-4-yl)-propionamide] | partial agonist | 7.70 | 43 |
| COc1ccc(C[C@@H](NC(=O)[C@@H](N)Cc2cncn2C)C(=O)N2CCC3(CC2)C(=O)N(Cc2ccccc2)CN3c2ccccc2)cc1 [Example 144, (S)-2-Amino-N-[(R)-2-(3-benzyl-4-oxo-1-phenyl-1,3,8-triaza-spiro[4.5]dec-8-yl)-1-(4-methoxy-benzyl)-2-oxo-ethyl]-3-(3-methyl-3H-imidazol-4-yl)-propionamide] | partial agonist | 7.77 | 46 |
| COc1ccc(C[C@@H](NC(=O)CCc2cnc[nH]2)C(=O)N2CCC3(CC2)C(=O)N(CCO)CN3c2ccccc2)cc1 [Example 149, N-[(R)-2-[3-(2-Hydroxy-ethyl)-4-oxo-1-phenyl-1,3,8-triaza-spiro[4.5]dec-8-yl]-1-(4-methoxy-benzyl)-2-oxo-ethyl]-3-(3H-imidazol-4-yl)-propionamide] | partial agonist | 7.60 | 60 |
| COc1ccc(C[C@@H](NC(=O)CCc2cnc[nH]2)C(=O)N2CCC3(CC2)C(=O)N(C(C)C)CN3c2ccccc2)cc1 [Example 150, 3-(3H-Imidazol-4-yl)-N-[(R)-2-(3-isopropyl-4-oxo-1-phenyl-1,3,8-triaza-spiro[4.5]dec-8-yl)-1(4-methoxy-benzyl)-2-oxo-ethyl]-propionamide] | partial agonist | 8.52 | 71 |
| COc1ccc(C[C@@H](NC(=O)[C@@H](N)Cc2cncn2C)C(=O)N2CCC3(CC2)C(=O)N(C2CCCC2)CN3c2ccccc2)cc1 [Example 151, (S)-2-Amino-N-[(R)-2-(3-cyclopentyl-4-oxo-1-phenyl-1,3,8-triaza-spiro[4.5]dec-8-yl)-1-(4-methoxy-benzyl)-2-oxo-ethyl]-3-(3-methyl-3H-imidazol-4-yl)-propionamide] | partial agonist | 8.15 | 37 |
| COc1ccc(C[C@@H](NC(=O)CCc2cnc[nH]2)C(=O)N2CCC3(CC2)C(=O)N(C2CCCC2)CN3c2ccccc2)cc1 [Example 152, N-[(R)-2-(3-Cyclopentyl-4-oxo-1-phenyl-1,3,8-triaza-spiro[4.5]dec-8-yl)-1-(4-methoxy-benzyl)-2-oxo-ethyl]-3-(3H-imidazol-4-yl)-propionamide] | partial agonist | 8.70 | 50 |
| COc1ccc(C[C@@H](NC(=O)CCc2c[nH]cn2)C(=O)N2CCC3(CC2)C(=O)N(Cc2ccccc2)CN3c2ccccc2)cc1 [Example 153, N-[(R)-2-(3-Benzyl-4-oxo-1-phenyl-1,3,8-triaza-spiro[4.5]dec-8-yl)-1-(4-methoxy-benzyl)-2-oxo-ethyl]-3-(1H-imidazol-4-yl)-propionamide] | partial agonist | 7.92 | 54 |
| COc1ccc(C[C@@H](NC(=O)CCc2c[nH]cn2)C(=O)N2CCC3(CC2)C(=O)N(Cc2ccccc2Cl)CN3c2ccccc2)cc1 [Example 154, N-[(R)-2-[3-(2-Chloro-benzyl)-4-oxo-1-phenyl-1,3,8-triaza-spiro[4.5]dec-8-yl]-1-(4-methoxy-benzyl)-2-oxo-ethyl]-3-(1H-imidazol-4-yl)-propionamide] | partial agonist | 7.59 | 50 |
| COc1ccc(C[C@@H](NC(=O)CCc2c[nH]cn2)C(=O)N2CCC3(CC2)C(=O)N(Cc2cccc(Cl)c2)CN3c2ccccc2)cc1 [Example 155, N-[(R)-2-[3-(3-Chloro-benzyl)-4-oxo-1-phenyl-1,3,8-triaza-spiro[4.5]dec-8-yl]-1-(4-methoxy-benzyl)-2-oxo-ethyl]-3-(1H-imidazol-4-yl)-propionamide] | partial agonist | 7.85 | 42 |
| COc1ccc(C[C@@H](NC(=O)CCc2c[nH]cn2)C(=O)N2CCC3(CC2)C(=O)N(Cc2ccc(Cl)cc2)CN3c2ccccc2)cc1 [Example 156, N-[(R)-2-[3-(4-Chloro-benzyl)-4-oxo-1-phenyl-1,3,8-triaza-spiro[4.5]dec-8-yl]-1-(4-methoxy-benzyl)-2-oxo-ethyl]-3-(1H-imidazol-4-yl)-propionamide] | partial agonist | 7.64 | 45 |
| COc1ccc(C[C@@H](NC(=O)CCc2c[nH]cn2)C(=O)N2CCC3(CC2)C(=O)N(Cc2ccccn2)CN3c2ccccc2)cc1 [Example 157, 3-(1H-Imidazol-4-yl)-N-[(R)-1-(4-methoxy-benzyl)-2-oxo-2-(4-oxo-1-phenyl-3-pyridin-2-ylmethyl-1,3,8-triaza-spiro[4.5]dec-8-yl)-ethyl]-propionamide] | partial agonist | 7.39 | 38 |
| COc1ccc(C[C@@H](NC(=O)CCc2c[nH]cn2)C(=O)N2CCC3(CC2)C(=O)N(Cc2cccnc2)CN3c2ccccc2)cc1 [Example 158, 3-(1H-Imidazol-4-yl)-N-[(R)-1-(4-methoxy-benzyl)-2-oxo-2-(4-oxo-1-phenyl-3-pyridin-3-ylmethyl-1,3,8-triaza-spiro[4.5]dec-8-yl)-ethyl]-propionamide] | partial agonist | 7.70 | 45 |
| COc1ccc(C[C@@H](NC(=O)CCc2cnc[nH]2)C(=O)N2CCC3(CC2)C(=O)N(C2CCC2)CN3c2ccccc2)cc1 [Example 159, N-[(R)-2-(3-Cyclobutyl-4-oxo-1-phenyl-1,3,8-triaza-spiro[4.5]dec-8-yl)-1-(4-methoxy-benzyl)-2-oxo-ethyl]-3-(3H-imidazol-4-yl)-propionamide] | partial agonist | 8.22 | 49 |
| COc1ccc(C[C@@H](NC(=O)C[C@H]2Cc3ccccc3CN2)C(=O)N2CCC3(CC2)C(=O)N(C(C)C)CN3c2ccccc2)cc1 [Example 164, N-[(R)-2-(3-Isopropyl-4-oxo-1-phenyl-1,3,8-triaza-spiro[4.5]dec-8-yl)-1-(4-methoxy-benzyl)-2-oxo-ethyl]-2-(R)-1,2,3,4-tetrahydro-isoquinolin-3-yl-acetamide] | partial agonist | 9.15 | 75 |
